Source: patent US20200000840A1, “USE OF CYCLODEXTRINS TO REDUCE ENDOCYTOSIS IN MALIGNANT AND NEURODEGENERATIVE DISORDERS” (priority 2016, published 2020)
“And” between values parts separate entries of the source, which are not always exact repeats. Identical values can stand only once. Like-named read-outs stand apart in the source and are kept apart here. Marks after values point to notes of the source that are not given here.

Columns and labels:
[1] = in vivo; cited from earlier work
BBB = conditions: cited from earlier work; for Transport across BBB: 2 h, 1 mM
MDA-MB-231 cells = assay: Wound healing / gap closure migration assay (CytoSelect CBA-120); assay type: cell-based, human; conditions: treated 2 hours
Method: (§1) Published results have shown that β-CD inhibits human MDA-MB 231 cell migration (Guerra et al. 2016). This inhibition was attributed to the ability of β-CD to “deplete cholesterol”. β-CD, however, depletes also phospholipids. […] Cells were cultured in 24-well culture plates (Cytoselect CBA-120, 0.9 mm wound healing/gap closure migration assay) for 24 hours with wound healing insert in place. […] Protocol: Warm up the 24-well plate (CBA-120, Cell BioLabs Inc.) with 0.9 mm CytoSelect Wound Healing Inserts at room temperature for 10 minutes. Using sterile forceps, orient the desired number of inserts in the plate wells with their “wound field” aligned in the same direction. Create a cell suspension containing 0.5-1.0×10^6 cells/ml in media containing 10% fetal bovine serum (FBS). Add 500 μL of cell suspension to each well by carefully inserting the pipette tip through the open end at the top of the insert. For optimal cell dispersion, add 250 μL of cell suspension to either side of the open ends at the top of the insert. Incubate cells in a cell culture incubator for 12-24 hours. Carefully remove the insert from the well to begin the wound healing assay. Use sterile forceps to grab and lift the insert slowly from the plate well. Slowly aspirate and discard the media from the wells. Wash wells with media to remove dead cells and debris. Finally, add media to wells to keep cells hydrated. Repeat wash if wells still have debris or unattached cells. When washing is complete, add media with FBS and/or compounds to continue cell culture and wound healing process. Agents that inhibit or stimulate cell migration can be added directly to the wells. Incubate cells in a cell culture incubator (2 hours) and then wash cells with PBS and then add fresh media without compounds. Incubate 12-24 hours before wash and fixing. Remove the fixation solution and add 400 μL of Cell Stain Solution to each well. Allow the stain to incubate with the cells for 15 minutes at room temperature. Aspirate and discard the solution. Carefully wash each stained well 3× with deionized water. Discard washes and allow cells to dry at room temperature. Cells that migrated into the wounded area or protruded from the border of the wound were visualized and photographed under an inverted microscope. Determine the surface area of the defined wound area: Total Surface Area=0.9 mm x length. Determine the surface area of the migrated cells into the wound area: Migrated Cell Surface Area=length of cell migration (mm)×2 x length. Percent Closure (%)=Migrated Cell Surface Area/Total Surface Area x 100.

MCF-7 cells = assay: as above; assay type: cell-based, human; conditions: treated 2 hours
Method: as §1

[2] = tested on: MDA-MB 231 and MCF-7 human breast epithelial cell lines; assay: Wound healing assay, overall statements for both cell lines; assay type: cell-based
Method: as §1

[3] = tested on: human epithelial colorectal adenocarcinoma (Caco-2) cells; conditions: cited from earlier work
[4] = Table 2; cited from earlier work
human erythrocytes = conditions: human erythrocytes; cited from earlier work
MDA-MB-231 BC cells = conditions: cited from earlier work
[5] = tested on: H7 Lewis lung cancer cell lines; conditions: three H7 Lewis lung cancer cell lines; cited from earlier work
[6] = tested on: BC and prostate cancer cell lines; conditions: cancer cell lines vs normal counterparts; cited from earlier work
MCF7 BC cells = conditions: cited from earlier work
α-synuclein = conditions: mice, neuronal cell body and synapses; cited from earlier work
[7] = tested on: H7-O Lewis lung cancer cells; conditions: mice implanted with H7-O Lewis lung cancer cells; cited from earlier work
[8] = tested on: RTK-[PIP2]-PI3K-[PIP3]-AKT signaling in HeLa cells; conditions: cited from earlier work
mouse model of BC = conditions: cited from earlier work
[9] = target: BC resistance protein (BCRP/ABCG2) (Homo sapiens, UniProt Q9UNQ0); conditions: cited from earlier work
leukemia cell lines = conditions: cited from earlier work
[10] = tested on: primary effusion lymphoma (PEL); conditions: mice; cited from earlier work
urothelial cancer cells = conditions: cited from earlier work
[11] = tested on: MDA-MB-241 and ZR751 BC cells; conditions: cited from earlier work
Ab1-40/42 = conditions: rats, stereotactical injection into the hippocampus; cited from earlier work
[12] = rats, rabbits, dogs, and humans; cited from earlier work
rats [13] = conditions: […] daily; cited from earlier work
human keratinocytes = conditions: cited from earlier work
rats [14] = conditions: rat; cited from earlier work
rats [15] = conditions: cited from earlier work
transferrin endocytosis = conditions: 10 mM; cited from earlier work

Chain of BC resistance protein (BCRP/ABCG2) (Q9UNQ0 whole entry): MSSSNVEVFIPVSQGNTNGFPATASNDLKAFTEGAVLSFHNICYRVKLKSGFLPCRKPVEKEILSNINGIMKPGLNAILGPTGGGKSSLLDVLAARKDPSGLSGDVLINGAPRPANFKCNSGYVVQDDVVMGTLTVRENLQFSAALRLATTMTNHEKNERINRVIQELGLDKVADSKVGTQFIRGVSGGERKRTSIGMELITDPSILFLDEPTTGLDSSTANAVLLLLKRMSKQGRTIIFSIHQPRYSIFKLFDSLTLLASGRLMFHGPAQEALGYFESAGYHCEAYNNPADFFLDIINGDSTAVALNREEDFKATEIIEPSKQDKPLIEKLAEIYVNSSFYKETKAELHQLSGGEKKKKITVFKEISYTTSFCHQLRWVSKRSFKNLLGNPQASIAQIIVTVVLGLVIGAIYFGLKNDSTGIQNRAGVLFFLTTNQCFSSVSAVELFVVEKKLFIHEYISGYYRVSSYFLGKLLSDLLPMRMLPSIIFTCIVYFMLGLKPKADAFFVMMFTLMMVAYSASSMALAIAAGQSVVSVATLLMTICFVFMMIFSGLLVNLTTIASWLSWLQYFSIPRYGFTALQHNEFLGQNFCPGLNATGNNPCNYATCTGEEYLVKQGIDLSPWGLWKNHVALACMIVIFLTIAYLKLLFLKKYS

alendronate-β-CD [ALN-β-CD]
effect on bone [1]: bone-anabolic

hydroxypropyl-alpha-cyclodextrin [HPaCD]
Transport across BBB (BBB): 26.7 (1 mM) %
BBB breakdown (BBB): 2.5 mM
average wound closure (MDA-MB-231 cells; 1 mM): 53.00%
wound closure (Percent Closure), replications r1-r3 (MDA-MB-231 cells; 1 mM): 47.00% and 53.00% and 59.00%
average wound closure (MDA-MB-231 cells; 2 mM): 40.00%
wound closure (Percent Closure), replications r1-r3 (MDA-MB-231 cells; 2 mM): 40.00% and 33.00% and 47.00%
average wound closure (MDA-MB-231 cells; 4 mM): 31.67%
wound closure (Percent Closure), replications r1-r3 (MDA-MB-231 cells; 4 mM): 38.00% and 32.00% and 25.00%
average wound closure (MCF-7 cells; 1 mM): 41.33%
wound closure (Percent Closure), replications r1-r3 (MCF-7 cells; 1 mM): 35.00% and 41.00% and 48.00%
average wound closure (MCF-7 cells; 2 mM): 36.00%
wound closure (Percent Closure), replications r1-r3 (MCF-7 cells; 2 mM): 40.00% and 30.00% and 38.00%
average wound closure (MCF-7 cells; 4 mM): 28.67%
wound closure (Percent Closure), replications r1-r3 (MCF-7 cells; 4 mM): 28.00% and 22.00% and 36.00%
inhibition at 1 mM HPaCD compared with 2 mM HPbCD [2]: superior to inhibition at 2 mM HPbCD
migration versus concentration ([2]; 1-4 mM): migration decreased with higher concentration
effect on migration, HPaCD compared with HPbCD ([2]; all cases): stronger effect on migration than HPbCD
cytotoxicity ([3]; Caco-2 cells): less cytotoxic than α-cyclodextrin
Solubility in water [4]: ~500^a g/l

OC[C@H]1O[C@@H]2O[C@H]3[C@H](O)[C@@H](O)[C@@H](O[C@H]4[C@H](O)[C@@H](O)[C@@H](O[C@H]5[C@H](O)[C@@H](O)[C@@H](O[C@H]6[C@H](O)[C@@H](O)[C@@H](O[C@H]7[C@H](O)[C@@H](O)[C@@H](O[C@H]8[C@H](O)[C@@H](O)[C@@H](O[C@H]9[C@H](O)[C@@H](O)[C@@H](O[C@H]1[C@H](O)[C@H]2O)O[C@@H]9CO)O[C@@H]8CO)O[C@@H]7CO)O[C@@H]6CO)O[C@@H]5CO)O[C@@H]4CO)O[C@@H]3CO [γ-CD, gamma-cyclodextrin]
hemolytic activity (human erythrocytes): β-CD>α-CD>γ-CD

methyl-β-cyclodextrin [MβCD]
internalization of exosomes containing integrins (MDA-MB-231 BC cells): inhibited the internalization of exosomes
invasion activity [5]: suppressed invasion activity
sensitivity to induced cell death [6]: more sensitive to MβCD-induced cell death than their normal counterparts
endocytosis (MCF7 BC cells): inhibited
migration (MCF7 BC cells): inhibited
accumulation of α-synuclein (α-synuclein): reduced accumulation of α-synuclein
number of lung metastases [7]: reduced the number of lung metastases
RTK-[PIP2]-PI3K-[PIP3]-AKT signaling [8]: interfered with RTK-[PIP2]-PI3K-[PIP3]-AKT signaling
concentration in tumor (mouse model of BC): higher concentration in tumor than in other cells (except kidney and liver)
efficacy in mouse model of BC (mouse model of BC; in vivo): effective
decrease in activity of BCRP/ABCG2 [9]: 40%
growth of leukemia cell lines (leukemia cell lines): inhibited the growth
growth of primary effusion lymphoma [10]: inhibited growth
toxicity, invasive vs non-invasive cells (urothelial cancer cells): more toxic for invasive than for non-invasive urothelial cancer cells
spheroid migration and invasion [11]: inhibited

OC[C@H]1O[C@@H]2O[C@H]3[C@H](O)[C@@H](O)[C@@H](O[C@H]4[C@H](O)[C@@H](O)[C@@H](O[C@H]5[C@H](O)[C@@H](O)[C@@H](O[C@H]6[C@H](O)[C@@H](O)[C@@H](O[C@H]7[C@H](O)[C@@H](O)[C@@H](O[C@H]8[C@H](O)[C@@H](O)[C@@H](O[C@H]1[C@H](O)[C@H]2O)O[C@@H]8CO)O[C@@H]7CO)O[C@@H]6CO)O[C@@H]5CO)O[C@@H]4CO)O[C@@H]3CO [β-cyclodextrin, beta-cyclodextrin]
Transport across BBB (BBB): 9.3 (1 mM) %
BBB breakdown (BBB): 2.5 mM
toxicity of Ab1-40/42 (Ab1-40/42): Toxicity of Ab1-40/42 was reduced
steady-state volume of distribution [12]: corresponds well with the extracellular fluid volume of each species
deaths, daily doses s.c. (rats [13]): no deaths
apoptotic cell death (human keratinocytes): induces caspase-dependent apoptotic cell death
LD50 (rats [14]): 788 mg/kg
acute i.v. toxicity in rats (rats [15]): 1 g/kg
reduction of transferrin endocytosis (transferrin endocytosis): 80%

maltosyl-α-cyclodextrin
cytotoxicity [3]: less cytotoxic than α-cyclodextrin
